In patent publication US20110311532A1, “INHIBITION OF COMPLEMENT AND CELLULAR ACTIVATION” (priority 2007, published 2011):
Positions of bridges follow the written chain, without caps; N, C: chain ends. Non-standard residues stand in square brackets, D forms with d. Residues, ends and D or L forms follow the SMILES beside them. hArg = N=C(N)NCCCC[C@H](N)C(=O)O; Mpa = O=C(O)CCS

B1: Abciximab (antibody, chains of the INN, looked up, V domains shown)
VH: EVQLQQSGTVLARPGASVKMSCEASGYTFTNYWMHWVKQRPGQGLEWIGAIYPGNSDTSYIQKFKGKAKLTAVTSTTSVYMELSSLTNEDSAVYYCTLYDGYYVFAYWGQGTLVTVSA
VL: EIVLTQSPVTLSVTPGDSVSLSCRASRDISNNLHWFQQTSHESPRLLIKYASQSMSGIPSRFSGSGSGTDFTLSINSVETEDFGMYFCQQTNSWPYTFGGGTKLEIK
modifications: Fab
notes: monoclonal F(ab) fragment GPIIb/IIIa antagonist

How the values were obtained:
neutrophils = experiment: Tubing loop model, neutrophil activation by flow cytometry (CD15/CD11b); format: cell-based, human; conditions: anti-platelet agent in combination with NM4047
Method: (§1) In the following examples, heparinized whole blood from a donor volunteer was circulated in a PVC tubing at 37° C. to allow complement and cellular activation. It is known that alternative complement pathway is activated when blood comes in contact with the artificial surface of the PVC tubing. As a result, complement is activated to release inflammatory molecules. These inflammatory molecules activate neutrophils, monocytes and platelets. The monoclonal antibody NM4047, inhibits complement activation in vitro in human serum. NM4047 inhibits C3a, C5a, and C5b-9 in whole blood in the tubing loop model. […] We attributed these findings to the Fc region on the IgG1. Removal of Fc domain with Ficin generated an F(ab′)2 molecule which inhibited C3a, C5a, C5b-9.
(§2) NM4047 is an IgG1 monoclonal antibody that was identified as a blocker of alternative complement pathway activation. The monoclonal antibody was evaluated for inhibition of complement and cellular activation in a whole blood based extracorporeal circulation model. In this model, whole heparinzed human blood was diluted with plasmalyte and circulated in a PVC tubing loop for 2 h at 37° C. to allow complement activation to occur. A total of 21 tubing loops were prepared. […] Nine tubing loops received 400 μg/ml concentration of NM4047 and the other nine received 100 μg/ml concentration of NM4047. Tubing loops were then rotated for 2 h at 37° C. Following the rotation, aliquots of the blood were stained for flow cytometry for the evaluation of cellular activation. A separate aliquot of blood was centrifuged to separate plasma, which was used for measuring complement activation products in ELISA. […] Cellular activation was evaluated using flow cytometry methods. […] Cell populations were read in the BD-LSR 1 and Cell Quest software. The raw data taken from Cell Quest were analyzed using Win List software from Verity, populations were measured using Ln Median shifts in the activation marker in the case of neutrophils and monocytes, and population percentage shifts for platelets. […]

monocytes = experiment: Tubing loop model, monocyte activation by flow cytometry (CD14/CD11b); format: cell-based, human; conditions: anti-platelet agent in combination with NM4047
Method: as §1, §2

platelets = experiment: Tubing loop model, platelet activation by flow cytometry (CD61/CD62P); format: cell-based, human; conditions: for effect on Fc mediated platelet activation (CD62P): anti-platelet agent at various concentrations with 400 μg/ml NM4047
Method: as §1
NM4047 is an IgG1 monoclonal antibody that was identified as a blocker of alternative complement pathway activation. The monoclonal antibody was evaluated for inhibition of complement and cellular activation in a whole blood based extracorporeal circulation model. In this model, whole heparinzed human blood was diluted with plasmalyte and circulated in a PVC tubing loop for 2 h at 37° C. to allow complement activation to occur. A total of 21 tubing loops were prepared. […] Nine tubing loops received 400 μg/ml concentration of NM4047 and the other nine received 100 μg/ml concentration of NM4047. Tubing loops were then rotated for 2 h at 37° C. Following the rotation, aliquots of the blood were stained for flow cytometry for the evaluation of cellular activation. A separate aliquot of blood was centrifuged to separate plasma, which was used for measuring complement activation products in ELISA. […] However, activation of neutrophils, monocytes, and platelets was not inhibited. Cellular activation was evaluated using flow cytometry methods. Aliquots of blood sample were stained with FITC labeled CD15 for neutrophils, FITC labeled CD14 for monocytes, and FITC labeled CD61 for Platelets. The cells were also stained with activation markers PE labeled CD11b for neutrophils and monocytes, and PE labeled CD62P for platelets. The staining was done in three groups, one group containing CD15/CD11b, second group contained CD14/CD11b, and the third group contained CD61/CD62P antibodies. Following staining, the cells were lysed with lysis buffer, centrifuged to pellet the cells. After a quick wash with 1% BSA/PBS, the cells were suspended in 1% paraformaldehyde buffer. Cell populations were read in the BD-LSR 1 and Cell Quest software. The raw data taken from Cell Quest were analyzed using Win List software from Verity, populations were measured using Ln Median shifts in the activation marker in the case of neutrophils and monocytes, and population percentage shifts for platelets. The data was then plotted on MicroCal Origin software. […] The lack of cellular inhibition could only be explained by the fact that the IgG1 had the Fc region. To determine if the predicted Fc is the cause of the observed cellular activation, IgG1 was digested with Ficin protease.
NM4047 (IgG1) monoclonal antibody was evaluated for inhibition of complement and cellular activation in a whole blood based extracorporeal circulation model in the presence of ReoPro. ReoPro is a GPIIbIIIa monoclonal antibody that binds resting and activated platelets. In this experiment, heparinzed human blood was diluted with plasmalyte and circulated in a PVC tubing loop for 2 h at 37° C. to allow complement activation to occur. A total of 21 tubing loops were prepared. […] Nine tubing loops received 400 μg/ml concentration of NM4047 and the other nine received 100 μg/ml concentration of NM4047. All samples other than controls received 10 μg/ml of ReoPro (clinical material). All tubing loops were then rotated for 2 h at 37° C. Following the rotation, aliquots of the blood were stained for flow cytometry for the evaluation of cellular activation. […]

complement activation = experiment: Tubing loop model, overall complement activation or inhibition; format: biochemical, human; conditions: anti-platelet agent in combination with NM4047
Method: as §2, with “activation.” for “activation. A separate aliquot of blood was centrifuged to separate plasma, which was used for measuring complement activation products in ELISA.”
NM4047 (IgG1) monoclonal antibody was evaluated for inhibition of complement and cellular activation in a whole blood based extracorporeal circulation model in the presence of ReoPro. […] Cellular activation was evaluated using flow cytometry methods. […]

erythrocytes = experiment: Hemolysis of erythrocytes in tubing loop experiments; format: cell-based, human; conditions: high concentration doses; tested at 5-50 μg/ml
From the text: In this example, we evaluated the effects of Aspirin a commonly used inhibitor of platelet activation. Aspirin is also used as a standard of care for cardiac procedures. […] The tubing loop experiments presented in various examples above remained the same. The only difference was in the type of test agent used across these experiments. While good results were noticed with ReoPro and Aggrastat, the cost of such drugs may be prohibitive. In such cases, aspirin may become a viable option.

| Molecule | effect on neutrophil activation (neutrophils) | effect on monocyte activation (monocytes) | effect on Fc mediated platelet activation (CD62P) (platelets) | concentration achieving complete inhibition of platelet activation (platelets; with 400 μg/ml NM4047, 1 to 20 μg/ml tested) | effect on level of complement inhibition by NM4047 (complement activation) | hemolysis of erythrocytes (erythrocytes) | total platelet activation (platelets; Integrillin 100 μg/ml with 400 μg/ml NM4047) | inhibition of platelet activation (platelets; ReoPro 10 μg/ml with NM4047 400 or 100 μg/ml) | platelet activation in samples containing IgG2 antibody (platelets; ReoPro together with IgG2 antibody) | concentration at which effect on platelet inhibition starts to vanish (platelets; with 400 μg/ml NM4047) |
| --- | --- | --- | --- | --- | --- | --- | --- | --- | --- | --- |
| CCCCS(=O)(=O)N[C@@H](Cc1ccc(OCCCCC2CCNCC2)cc1)C(=O)O [Aggrastat, Tirofiban] | no effect | no effect | highly potent | 1 µg/mL | – | – | – | – | – | – |
| CC(=O)Oc1ccccc1C(=O)O [Aspirin] | only partial effect | only partial effect | inhibits | – | did not alter | caused hemolysis | – | – | – | – |
| N=C(N)NCCCC[C@@H]1NC(=O)CCSSC[C@@H](C(N)=O)NC(=O)[C@@H]2CCCN2C(=O)[C@H](Cc2c[nH]c3ccccc23)NC(=O)[C@H](CC(=O)O)NC(=O)CNC1=O [Integrillin, Eptifibatide] ([Mpa][hArg]GDWPC-NH2; disulfide 1-7) | – | – | does not inhibit | – | – | – | at least 4 fold | – | – | – |
| B1 | does not inhibit | does not inhibit | dose dependent | – | did not affect | – | – | ~100% | inhibited | 0.5 µg/mL |
